Measured values as given in EPA's ToxValDB 9.5 (doi:10.2903/j.efsa.2006.62r).
In brackets after ≈: the same amount, converted by molar mass.

Tests used:
[1] = tested on: Folsomia candida; conditions: chronic/long-term; reproduction
[2] = tested on: Bibionidae; conditions: chronic/long-term; other
[3] = tested on: Canidae; conditions: oral, Dog Other, neurology
[4] = tested on: Tagia sp.
[5] = tested on: Oncorhynchus mykiss; conditions: chronic/long-term; duration: 91 days; development
[6] = tested on: Daphnia magna; conditions: chronic/long-term; growth
[7] = tested on: Hypoaspis aculeifer; conditions: chronic/long-term; duration: 14 days; mortality
[8] = tested on: Colinus virginianus
[9] = tested on: Rattus norvegicus; conditions: acute; M; mortality
[10] = tested on: Apis mellifera; conditions: acute, mortality
[11] = tested on: Lepomis macrochirus; conditions: acute; duration: 96 hours; mortality
[12] = tested on: Oryctolagus sp.; conditions: developmental; development
[13] = tested on: Aphidius rhopalosiphi; experiment: LR50; higher = less toxic; conditions: not reported; mortality

| Compound | NOEC [1] [mg/kg] | NOEC [2] [mg/L] | NOAEL ([3]; acute) [mg/kg-day] | NOAEL ([3]; chronic, duration: 1 years) [mg/kg-day] | LC50 ([4]; acute, duration: 14 days, mortality) [mg/kg] | NOEC ([4]; chronic/long-term, duration: 8 weeks, reproduction) [g/ha] | NOEC [5] [mg/L] | NOEC [6] [mg/L] | NOEC [7] [mg/kg] | LEL ([8]; acute, oral, M) [mg/kg-day] | NOEC ([8]; reproduction developmental, M/F) [mg/kg-day] | LEC ([8]; short-term, oral, diet) [mg/kg-day] | LD50 [9] [mg/kg] | LD50 ([10]; duration: 48 hours, dermal) [µg/piece] | LD50 ([10]; oral, unspecified) [µg/piece] | LC50 [11] [ng/mL] | NOAEL [12] [mg/kg-day] | LR50 [13] [g/ha] |
| --- | --- | --- | --- | --- | --- | --- | --- | --- | --- | --- | --- | --- | --- | --- | --- | --- | --- | --- |
| CCOP(=O)(NC(C)C)Oc1ccc(S(C)(=O)=O)c(C)c1 (stereo not given) [Fenamiphos sulfone] | 3.75 |  |  |  |  |  |  |  |  |  |  |  |  |  |  |  |  |  |
| CCOP(=O)(NC(C)C)Oc1ccc(S(C)=O)c(C)c1 (stereo not given) [Fenamiphos sulfoxide] | 2 | 0.058 |  |  |  |  |  |  |  |  |  |  |  |  |  |  |  |  |
| CCOP(=O)(NC(C)C)Oc1ccc(SC)c(C)c1 (stereo not given) [Fenamiphos] | 0.313 |  | 0.25 | 0.083 | 888 | < 6000 | 0.0038 | 0.00012 | 1.33 | 0.8 | 0.2 | 6 | 6 | 0.28 | 0.45 | 9.3 (≈ 0.0307 µM) | 0.3 | 0.175 |
